The results in this text go back to patent publication US7851474B2, “Dipiperazinyl ketones and related analogues” (Neurogen Corporation, priority 2005, dated 2010).

One may read the Ki as the equilibrium dissociation constant of an inhibitor or competing ligand from its target.

The structures appear in SMILES notation.

T1 sequence (Q9Y5N1 with tags, fused parts or gaps E19D): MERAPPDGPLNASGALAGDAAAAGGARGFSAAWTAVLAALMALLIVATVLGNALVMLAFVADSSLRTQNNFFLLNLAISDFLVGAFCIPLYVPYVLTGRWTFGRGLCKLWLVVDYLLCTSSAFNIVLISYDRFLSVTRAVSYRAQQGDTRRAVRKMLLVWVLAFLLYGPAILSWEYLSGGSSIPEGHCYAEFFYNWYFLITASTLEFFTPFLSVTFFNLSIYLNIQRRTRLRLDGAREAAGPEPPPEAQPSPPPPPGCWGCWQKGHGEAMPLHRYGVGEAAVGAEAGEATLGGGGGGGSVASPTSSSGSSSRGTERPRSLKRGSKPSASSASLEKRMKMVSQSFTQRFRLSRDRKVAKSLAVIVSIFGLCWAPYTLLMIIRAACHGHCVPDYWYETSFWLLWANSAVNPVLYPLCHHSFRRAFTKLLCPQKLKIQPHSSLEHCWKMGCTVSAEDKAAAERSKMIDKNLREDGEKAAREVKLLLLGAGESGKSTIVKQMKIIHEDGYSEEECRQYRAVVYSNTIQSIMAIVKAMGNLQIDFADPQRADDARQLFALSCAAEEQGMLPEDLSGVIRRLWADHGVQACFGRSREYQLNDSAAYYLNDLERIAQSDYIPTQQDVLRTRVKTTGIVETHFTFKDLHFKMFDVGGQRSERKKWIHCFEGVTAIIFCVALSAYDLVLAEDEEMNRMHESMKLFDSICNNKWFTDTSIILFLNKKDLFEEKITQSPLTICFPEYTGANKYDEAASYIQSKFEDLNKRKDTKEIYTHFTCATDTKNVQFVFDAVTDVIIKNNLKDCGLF

One test concerns the target T1, chimeric human H3 receptor (Homo sapiens, UniProt Q9Y5N1, E19D).
T1 construct: made in house; host or cells: Sf9 insect cells (baculovirus infection); P2 membrane preparation
The test is described as follows: Chimeric human H3 receptor GTP binding assay (agonist-stimulated GTP-gamma35S binding, Example 7). Type of test: biochemical.
Settings: not given
An outline of the steps: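 IC50 values come from non-linear regression of dose-response curves of filter-bound GTP-gamma^35S, counted by scintillation. Membranes were from infected Sf9 cells carrying receptor plus G-protein subunits, 35 μg/tube, with 10 μM GDP present.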
With `O=C(CN1CCN(c2ccc(F)c(C(F)(F)F)c2)CC1)N1CCN(C2CCCC2)CC1` [Compound 830, 1-cyclopentyl-4-({4-[4-fluoro-3-(trifluoromethyl)phenyl]piperazin-1-yl}acetyl)piperazine], the Ki was below 1000 nM. Still for that read-out and setting: the value for `O=C(CN1CCN(c2ccc3c(c2)OCO3)CC1)N1CCN(C2CCCC2)CC1` [Compound 257, 1-(1,3-benzodioxol-5-yl)-4-[2-(4-cyclopentylpiperazin-1-yl)-2-oxoethyl]piperazine] was below 1000 nM.

Still in this test, the particulars now being: "*" in Ki of Table II; assay of Example 7; read-out: Ki.
In the case of `Cc1cccc(OC(C)C(=O)N2CCN(CC(=O)N3CCN(C4CCC4)CC3)CC2)c1C` (centres unmarked) [Compound 571, 1-cyclobutyl-4-({4-[2-(2,3-dimethylphenoxy)propanoyl]piperazin-1-yl}acetyl)piperazine], the Ki was below 1000 nM.

For `O=C(CN1CCC(N2CCCCCC2)CC1)N1CCN(C2CCCCC2)CC1` [Compound 480, 1-{1-[2-(4-cyclohexylpiperazin-1-yl)-2-oxoethyl]piperidin-4-yl}azepane], the Ki is below 1000 nM. Still for that read-out and setting: the value for `O=C(CN1CCN(c2ccc(Cl)c(C(F)(F)F)c2)CC1)N1CCN(C2CCC2)CC1` [Compound 464, 1-[4-chloro-3-(trifluoromethyl)phenyl]-4-[2-(4-cyclobutylpiperazin-1-yl)-2-oxoethyl]piperazine] was below 1000 nM.

Still in this test, the particulars now being: Table II "Ki", symbol "*": Ki in the assay of Example 7; read-out: Ki.
As to `CCC(C)N1CCN(C(=O)CN2CCN(c3ccc(OC)cc3OC)CC2)CC1` (centres unmarked) [Compound 862, 1-sec-butyl-4-{[4-(2,4-dimethoxyphenyl)piperazin-1-yl]acetyl}piperazine], the Ki is below 1000 nM. On to `Cc1ccc(N2CCN(CC(=O)N3CCN(C4CCCCC4)CC3)CC2)cc1C` [Compound 817, 1-cyclohexyl-4-{[4-(3,4-dimethylphenyl)piperazin-1-yl]acetyl}piperazine], for which the Ki was below 1000 nM. Regarding `Cc1ccc(-c2cnc(N3CCN(CC(=O)N4CCN(C5CCC5)CC4)CC3)cn2)cc1C` [Compound 928, 2-{4-[2-(4-cyclobutylpiperazin-1-yl)-2-oxoethyl]piperazin-1-yl}-5-(3,4-dimethylphenyl)pyrazine], the Ki is below 1000 nM. `Cc1ccc(N2CCN(CC(=O)N3CCN(C4CCCCC4)CC3)CC2)cc1` [Compound 824, 1-cyclohexyl-4-{[4-(4-methylphenyl)piperazin-1-yl]acetyl}piperazine]: the inhibition constant Ki was below 1000 nM.

The test is the same for the next values; noted with them: Table II, "*" in Ki; assay of Example 7; read-out: Ki.
As for `COc1ccc(-c2ccc(N3CCN(CC(=O)N4CCN(C5CCC5)CC4)CC3)cc2)c(OC)c1` [Compound 678, 1-cyclobutyl-4-{[4-(2′,4′-dimethoxybiphenyl-4-yl)piperazin-1-yl]acetyl}piperazine], the Ki is below 1000 nM.

Regarding `O=C(CN1CCN(c2ccc(-c3cc(Cl)cc(Cl)c3)cc2)CC1)N1CCN(C2CCC2)CC1` [Compound 739, 1-cyclobutyl-4-{[4-(3′,5′-dichlorobiphenyl-4-yl)piperazin-1-yl]acetyl}piperazine], the Ki was below 1000 nM. In the case of `O=C(CN1CCN(c2ccc(-c3ccccc3C(F)(F)F)cc2)CC1)N1CCN(C2CCC2)CC1` [Compound 580, 1-cyclobutyl-4-({4-[2′-(trifluoromethyl)biphenyl-4-yl]piperazin-1-yl}acetyl)piperazine], the Ki was below 1000 nM. On the same count and under the same terms, as for `O=C(CN1CCN(c2ccc(-c3ccc(Cl)c(Cl)c3)cc2)CC1)N1CCN(C2CCC2)CC1` [Compound 727, 1-cyclobutyl-4-{[4-(3′,4′-dichlorobiphenyl-4-yl)piperazin-1-yl]acetyl}piperazine], the figure is below 1000 nM.

Still in this test, the particulars now being: Table II; assay of Example 7; "*" in Ki; read-out: Ki.
In the case of `CC(C)(C)c1ccc(-c2ccc(N3CCN(CC(=O)N4CCN(C5CCC5)CC4)CC3)nn2)cc1` [Compound 992, 3-(4-tert-butylphenyl)-6-{4-[2-(4-cyclobutylpiperazin-1-yl)-2-oxoethyl]piperazin-1-yl}pyridazine], the Ki is below 1000 nM. Take `CN(C)c1cccc(-c2ccc(N3CCN(CC(=O)N4CCN(C5CCC5)CC4)CC3)cc2)c1` [Compound 1117, 4′-{1-[2-(4-cyclobutylpiperazin-1-yl)-2-oxoethyl]piperazin-1-yl}-N,N-dimethylbiphenyl-3-amine]: the Ki is below 1000 nM.

As to `CC1CN(C(=O)c2cccc(N3CCN(CC(=O)N4CCN(C5CCC5)CC4)CC3)c2)CC(C)O1` (centres unmarked) [Compound 1092, 4-(3-{4-[2-(4-cyclobutylpiperazin-1-yl)-2-oxoethyl]piperazin-1-yl}benzoyl)-2,6-dimethylmorpholine], the Ki was below 1000 nM. Same read-out and setting: as for `O=C(CN1CCC2(CC1)c1ccccc1C(=O)N2C1CCC1)N1CCN(C2CCC2)CC1` [Compound 984, 2-cyclobutyl-1′-[2-(4-cyclobutylpiperazin-1-yl)-2-oxoethyl]spiro[isoindole-1,4′-piperidin]-3(2H)-one], the figure is below 1000 nM; as for `CC(C)c1ccccc1-c1ccc(N2CCN(CC(=O)N3CCN(C4CCC4)CC3)CC2)nn1` [Compound 1058, 3-{4-[2-(4-cyclobutylpiperazin-1-yl)-2-oxoethyl]piperazin-1-yl}-6-(2-isopropylphenyl) pyridazine], below 1000 nM.

In the case of `COc1cccc(OC)c1-c1ccc(N2CCN(CC(=O)N3CCN(C4CCC4)CC3)CC2)nn1` [Compound 1057, 3-{4-[2-(4-cyclobutylpiperazin-1-yl)-2-oxoethyl]piperazin-1-yl}-6-(2,6-dimethoxyphenyl) pyridazine], the Ki is below 1000 nM. Same read-out and setting: as for `CC(C)CNC(=O)c1ccc(N2CCN(CC(=O)N3CCN(C4CCC4)CC3)CC2)cc1` [Compound 1134, 4-{4-[2-(4-cyclobutylpiperazin-1-yl)-2-oxoethyl]piperazin-1-yl}-N-isobutylbenzamide], the figure is below 1000 nM; as for `CN(C)c1ccc(-c2cnc(N3CCN(CC(=O)N4CCN(C5CCC5)CC4)CC3)cn2)cc1` [Compound 1097, 4-(5-{4-[2-(4-cyclobutylpiperazin-1-yl)-2-oxoethyl]piperazin-1-yl}pyrazin-2-yl)-N,N-dimethylaniline], below 1000 nM; as for `O=C(CN1CCN(c2ccc(-c3ccc(F)c(F)c3)nn2)CC1)N1CCN(C2CCC2)CC1` [Compound 1049, 3-{4-[2-(4-cyclobutylpiperazin-1-yl)-2-oxoethyl]piperazin-1-yl}-6-(3,4-difluorophenyl)pyridazine], below 1000 nM. Still for that read-out and setting: as for `O=C(CN1CCN(c2cnc(-c3cc(Cl)cc(Cl)c3)cn2)CC1)N1CCN(C2CCC2)CC1` [Compound 963, 2-{4-[2-(4-cyclobutylpiperazin-1-yl)-2-oxoethyl]piperazin-1-yl}-5-(3,5-dichlorophenyl)pyrazine], the figure is below 1000 nM.

The test is the same for the next values; noted with them: assay of Example 7; "*" in Ki of Table II; read-out: Ki.
With `CCOc1ccc(C(=O)NC2CCN(CC(=O)N3CCN(C4CCC4)CC3)CC2)cc1` [Compound 1221, N-{1-[2-(4-cyclobutylpiperazin-1-yl)-2-oxoethyl]piperidin-4-yl}-4-ethoxybenzamide], the Ki was below 1000 nM. Turning to `O=C(CC1CCCCC1)NC1CCN(CC(=O)N2CCN(C3CCC3)CC2)CC1` [Compound 1209, N-{1-[2-(4-cyclobutylpiperazin-1-yl)-2-oxoethyl]piperidin-4-yl}-2-cyclohexylacetamide], the Ki is below 1000 nM. The same measure, in the same setting: as for `O=C(NC1CCN(CC(=O)N2CCN(C3CCC3)CC2)C1)c1ccc2ccccc2c1` (centres unmarked) [Compound 1233, N-{1-[2-(4-cyclobutylpiperazin-1-yl)-2-oxoethyl]pyrrolidin-3-yl}-2-naphthamide], the figure is below 1000 nM.

Consider `CCCCCNC(=O)c1ccc(N2CCN(CC(=O)N3CCN(C4CCC4)CC3)CC2)nc1` [Compound 1178, 6-{4-[2-(4-cyclobutylpiperazin-1-yl)-2-oxoethyl]piperazin-1-yl}-N-pentylnicotinamide], for which the Ki was below 1000 nM. Same read-out and setting: the value for `CCOC(=O)c1ccc(N2CCN(CC(=O)N3CCN(C4CCC4)CC3)CC2)cc1` [Compound 1201, ethyl 4-{4-[2-(4-cyclobutylpiperazin-1-yl)-2-oxoethyl]piperazin-1-yl}benzoate] was below 1000 nM; that for `CCCCNC(=O)c1ccc(N2CCN(CC(=O)N3CCN(C4CCC4)CC3)CC2)nc1` [Compound 1265, N-butyl-6-{4-[2-(4-cyclobutylpiperazin-1-yl)-2-oxoethyl]piperazin-1-yl}nicotinamide] was below 1000 nM.

As to `O=C1CCc2cc(N3CCN(CC(=O)N4CCN(C5CCC5)CC4)CC3)ccc21` [Compound 1157, 5-{4-[2-(4-cyclobutylpiperazin-1-yl)-2-oxoethyl]piperazin-1-yl}indan-1-one], the inhibition constant (Ki) was below 1000 nM.

The same test, now with this note: assay of Example 7; symbol * in column headed Ki of Table II; read-out: Ki.
Turning to `O=C(CN1CCN(c2ccc(-c3ccc(F)c(Cl)c3)cc2)CC1)N1CCN(C2CCC2)CC1` [Compound 297, 1-(3′-chloro-4′-fluorobiphenyl-4-yl)-4-[2-(4-cyclobutylpiperazin-1-yl)-2-oxoethyl]piperazine], the Ki is below 1000 nM.

For `CC(=O)c1ccc(N2CCN(CC(=O)N3CCN(C4CCC4)CC3)CC2=O)cc1` [Compound 333, 1-(4-acetylphenyl)-4-[2-(4-cyclobutylpiperazin-1-yl)-2-oxoethyl]piperazin-2-one], the Ki was below 1000 nM. Turning to `Cc1ccc(F)c(-c2ccc(N3CCN(CC(=O)N4CCN(C5CCC5)CC4)CC3)cc2)c1Cl` [Compound 273, 1-(2′-chloro-6′-fluoro-3′-methylbiphenyl-4-yl)-4-[2-(4-cyclobutylpiperazin-1-yl)-2-oxoethyl]piperazine], the Ki was below 1000 nM. Still for that read-out and setting: the value for `CC(Oc1ccccc1Cl)C(=O)N1CCN(CC(=O)N2CCN(C3CCC3)CC2)CC1` (centres unmarked) [Compound 417, 1-[2-(2-chlorophenoxy)propanoyl]-4-[2-(4-cyclobutylpiperazin-1-yl)-2-oxoethyl]piperazine] was below 1000 nM; that for `CC(=O)c1ccc(N2CCN(CC(=O)N3CCN(C4CCC4)CC3)CC2)c2ccccc12` [Compound 310, 1-(4-{4-[2-(4-cyclobutylpiperazin-1-yl)-2-oxoethyl]piperazin-1-yl}-1-naphthyl)ethanone] was below 1000 nM.
